The source made the active and inactive calls. No cut-off for these calls is given here.
Experiments:
Androgen receptor [1] = molecular target: T1, Androgen receptor (Homo sapiens, UniProt P10275); assay: Inhibition of R1881-induced full length AR transcriptional activity in human LNCAP cells harboring AR2PB-eGFP construct after 72 hrs by fluorescence assay; assay type: cell-based
T1 sequence (P10275 whole entry): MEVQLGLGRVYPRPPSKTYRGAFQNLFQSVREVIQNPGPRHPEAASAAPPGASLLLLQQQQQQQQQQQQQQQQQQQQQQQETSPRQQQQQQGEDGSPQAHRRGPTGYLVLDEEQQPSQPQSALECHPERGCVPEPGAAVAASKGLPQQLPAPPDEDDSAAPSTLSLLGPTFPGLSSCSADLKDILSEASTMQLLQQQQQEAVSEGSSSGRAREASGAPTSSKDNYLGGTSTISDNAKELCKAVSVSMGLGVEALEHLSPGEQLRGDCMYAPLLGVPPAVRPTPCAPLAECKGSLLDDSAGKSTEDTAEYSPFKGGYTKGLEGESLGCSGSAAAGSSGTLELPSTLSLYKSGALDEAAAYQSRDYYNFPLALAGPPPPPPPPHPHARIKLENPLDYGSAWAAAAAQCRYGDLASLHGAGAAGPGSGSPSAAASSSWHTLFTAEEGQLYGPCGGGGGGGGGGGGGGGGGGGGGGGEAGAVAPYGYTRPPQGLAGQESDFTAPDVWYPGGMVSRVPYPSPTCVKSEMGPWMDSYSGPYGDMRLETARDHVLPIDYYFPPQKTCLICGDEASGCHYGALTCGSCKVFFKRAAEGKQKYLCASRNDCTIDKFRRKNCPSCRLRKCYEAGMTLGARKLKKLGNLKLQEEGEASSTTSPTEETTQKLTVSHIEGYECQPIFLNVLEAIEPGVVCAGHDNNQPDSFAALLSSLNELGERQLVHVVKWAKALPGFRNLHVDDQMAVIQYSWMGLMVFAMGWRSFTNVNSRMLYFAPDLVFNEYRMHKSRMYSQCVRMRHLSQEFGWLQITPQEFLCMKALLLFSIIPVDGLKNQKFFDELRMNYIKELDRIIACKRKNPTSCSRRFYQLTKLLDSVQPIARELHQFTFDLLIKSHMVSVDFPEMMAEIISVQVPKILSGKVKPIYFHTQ

Androgen receptor [2] = molecular target: Androgen receptor (Homo sapiens, UniProt P10275); assay: Inhibition of R1881-induced transcriptional activity of human AR V7 truncated mutant expressed in human PC3 cells harboring pGL3-ARR3tk-NLuc after 24 hrs by luciferase reporter gene assay; assay type: cell-based
Androgen receptor [3] = molecular target: T1, Androgen receptor; assay: Inhibition of full length AR transcriptional activity in human LNCAP cells harboring AR2PB-eGFP construct assessed as reduction in R1881-induced secreted PSA level after 72 hrs by fluorescence assay; assay type: cell-based
CWR22R [4] = assay: Cytotoxicity against human 22Rv1 cells assessed as growth inhibition at 0.5 uM after 72 hrs by presto-blue dye based assay; assay type: functional, cell-based
PC-3 [5] = assay: Cytotoxicity against human PC3 cells assessed as growth inhibition after 72 hrs by presto-blue dye based assay; assay type: cell-based; conditions: pc-3, 72 h
[6] = molecular target: T2, Androgen receptor (Homo sapiens) (UniProt P10275); assay: Induction of full length AR degradation in human LNCAP cells at 2 to 20 uM after 5 hrs by Western blot analysis; assay type: cell-based
T2 sequence (whole entry): T1 sequence (P10275 whole entry)

LNCaP [7] = assay: Induction of apoptosis in human LNCAP cells assessed as PARP cleavage at 2 to 20 uM after 5 hrs by Western blot analysis; assay type: functional, cell-based
[8] = molecular target: T2, Androgen receptor (Homo sapiens); assay: Induction of full length AR degradation in human LNCAP cells assessed as reduction in AR mRNA level at 2 to 20 uM after […] by RT-PCR method; assay type: cell-based
Androgen receptor [9] = molecular target: T3, Androgen receptor (Rattus norvegicus, UniProt P15207); assay: Displacement of Fluormone-DHT from rat GST-tagged rat AR LBD expressed in insect cells after 4 hrs by fluorescence polarization assay
T3 sequence (P15207 whole entry): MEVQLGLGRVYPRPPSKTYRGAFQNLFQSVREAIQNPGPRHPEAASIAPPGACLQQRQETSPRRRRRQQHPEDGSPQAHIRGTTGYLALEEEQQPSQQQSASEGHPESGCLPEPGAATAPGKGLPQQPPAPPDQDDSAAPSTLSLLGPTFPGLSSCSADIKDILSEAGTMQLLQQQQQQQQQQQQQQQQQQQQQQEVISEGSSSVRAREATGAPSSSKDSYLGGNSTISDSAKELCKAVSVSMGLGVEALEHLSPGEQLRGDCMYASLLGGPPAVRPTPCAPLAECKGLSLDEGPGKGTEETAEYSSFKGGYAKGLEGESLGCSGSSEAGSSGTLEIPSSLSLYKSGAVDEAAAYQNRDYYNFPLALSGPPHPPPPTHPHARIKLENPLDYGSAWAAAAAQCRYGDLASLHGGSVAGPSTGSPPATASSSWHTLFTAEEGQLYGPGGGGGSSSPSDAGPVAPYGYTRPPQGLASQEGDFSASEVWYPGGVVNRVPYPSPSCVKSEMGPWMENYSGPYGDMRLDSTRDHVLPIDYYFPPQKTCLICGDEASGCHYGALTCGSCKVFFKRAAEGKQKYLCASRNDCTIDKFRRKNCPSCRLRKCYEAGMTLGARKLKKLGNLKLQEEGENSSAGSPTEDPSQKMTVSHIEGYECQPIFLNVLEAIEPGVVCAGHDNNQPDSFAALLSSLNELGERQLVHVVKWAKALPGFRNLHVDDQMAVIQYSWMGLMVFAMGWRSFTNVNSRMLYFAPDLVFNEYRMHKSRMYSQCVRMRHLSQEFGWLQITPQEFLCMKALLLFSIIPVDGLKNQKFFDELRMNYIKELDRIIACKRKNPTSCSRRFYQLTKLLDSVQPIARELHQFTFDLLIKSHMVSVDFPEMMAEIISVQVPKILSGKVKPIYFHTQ

[10] = molecular target: T2, Androgen receptor (Homo sapiens); assay: Inhibition of R1881-induced transcriptional activity of human AR expressed in human PC3 cells harboring pGL3-ARR3tk-NLuc at 2 uM after 24 hrs by luciferase reporter gene assay; assay type: cell-based
[11] = molecular target: Estrogen receptor (Homo sapiens) (UniProt Q92731+P03372); assay: Inhibition of estradiol-induced transcriptional activity of human ER expressed in human PC3 cells harboring pGL3-ERE-NLuc at 2 uM after 24 hrs by luciferase reporter gene assay; assay type: cell-based
[12] = molecular target: T4, Glucocorticoid receptor (Homo sapiens) (UniProt P04150); assay: Inhibition of dexamethasone-induced transcriptional activity of human GR expressed in human PC3 cells harboring pGL3-ARR3tk-NLuc at 2 uM after 24 hrs by luciferase reporter gene assay; assay type: cell-based
T4 sequence (whole entry): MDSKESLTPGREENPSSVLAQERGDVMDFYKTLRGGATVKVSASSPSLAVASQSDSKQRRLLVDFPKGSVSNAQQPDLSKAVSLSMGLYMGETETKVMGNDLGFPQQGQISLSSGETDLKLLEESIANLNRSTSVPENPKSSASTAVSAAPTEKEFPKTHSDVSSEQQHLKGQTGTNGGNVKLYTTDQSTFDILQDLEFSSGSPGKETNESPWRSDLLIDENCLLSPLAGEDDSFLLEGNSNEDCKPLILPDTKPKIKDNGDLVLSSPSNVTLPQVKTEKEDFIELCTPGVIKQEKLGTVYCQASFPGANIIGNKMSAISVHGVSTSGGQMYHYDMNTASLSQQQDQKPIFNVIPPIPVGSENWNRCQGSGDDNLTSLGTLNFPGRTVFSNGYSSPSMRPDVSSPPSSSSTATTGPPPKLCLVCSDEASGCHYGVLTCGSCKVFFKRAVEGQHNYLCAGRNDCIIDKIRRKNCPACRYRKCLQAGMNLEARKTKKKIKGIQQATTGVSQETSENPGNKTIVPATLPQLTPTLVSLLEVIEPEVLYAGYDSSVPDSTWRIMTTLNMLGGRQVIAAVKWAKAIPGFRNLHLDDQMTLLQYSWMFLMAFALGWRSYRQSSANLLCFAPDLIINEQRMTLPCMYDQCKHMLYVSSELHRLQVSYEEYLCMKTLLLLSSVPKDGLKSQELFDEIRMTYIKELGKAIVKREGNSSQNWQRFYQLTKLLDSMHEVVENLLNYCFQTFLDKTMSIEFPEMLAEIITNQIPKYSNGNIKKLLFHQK

[13] = molecular target: T5, Progesterone receptor (Homo sapiens) (UniProt P06401); assay: Inhibition of progesterone-induced transcriptional activity of human PR expressed in human PC3 cells harboring pGL3-ARR3tk-NLuc at 2 uM after 24 hrs by luciferase reporter gene assay; assay type: cell-based
T5 sequence (whole entry): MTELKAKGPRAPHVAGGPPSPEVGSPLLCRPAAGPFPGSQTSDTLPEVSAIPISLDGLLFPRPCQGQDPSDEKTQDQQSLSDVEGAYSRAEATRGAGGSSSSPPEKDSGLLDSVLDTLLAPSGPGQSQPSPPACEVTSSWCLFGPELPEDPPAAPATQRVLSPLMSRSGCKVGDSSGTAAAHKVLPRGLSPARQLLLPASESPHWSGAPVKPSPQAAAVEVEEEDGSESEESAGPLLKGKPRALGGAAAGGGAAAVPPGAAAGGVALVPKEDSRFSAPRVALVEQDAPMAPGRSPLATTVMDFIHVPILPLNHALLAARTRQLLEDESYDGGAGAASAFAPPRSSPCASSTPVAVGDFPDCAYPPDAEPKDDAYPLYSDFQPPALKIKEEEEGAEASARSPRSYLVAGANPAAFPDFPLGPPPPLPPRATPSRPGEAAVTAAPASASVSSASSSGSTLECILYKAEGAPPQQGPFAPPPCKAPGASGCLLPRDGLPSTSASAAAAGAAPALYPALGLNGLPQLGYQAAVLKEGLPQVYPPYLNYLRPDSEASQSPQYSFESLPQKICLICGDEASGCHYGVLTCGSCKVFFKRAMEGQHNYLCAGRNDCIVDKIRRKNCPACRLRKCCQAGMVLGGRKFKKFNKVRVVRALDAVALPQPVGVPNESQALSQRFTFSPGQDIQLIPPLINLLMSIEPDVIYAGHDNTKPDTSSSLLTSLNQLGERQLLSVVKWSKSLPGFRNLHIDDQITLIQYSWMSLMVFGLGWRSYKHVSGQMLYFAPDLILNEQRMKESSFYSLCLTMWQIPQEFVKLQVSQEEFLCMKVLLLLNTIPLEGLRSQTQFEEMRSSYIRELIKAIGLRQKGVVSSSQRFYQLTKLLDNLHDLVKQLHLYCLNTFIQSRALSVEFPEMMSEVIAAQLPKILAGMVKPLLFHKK

Tubulin = assay: Inhibition of tubulin polymerization (unknown origin); assay type: protein-complex assay, Homo sapiens
[14] = molecular target: T2, Androgen receptor (Homo sapiens); conditions: at 10 µM
Description: Antagonist activity at full length YFP-tagged AR (unknown origin) expressed in HEK293T cells assessed as inhibition of R1881-induced nuclear translocation at 10 uM after 4 hrs by DAPI staining based confocal microscopic method

CWR22R [15] = assay: Cytotoxicity against human 22Rv1 cells assessed as growth inhibition at lower concentration after 72 hrs by presto-blue dye based assay; assay type: functional, cell-based
CWR22R [16] = assay: Cytotoxicity against human 22Rv1 cells assessed as growth inhibition at 5 uM after 72 hrs by presto-blue dye based assay; assay type: functional, cell-based
LNCaP [17] = assay: Cytotoxicity against human LNCAP cells harboring AR2PB-eGFP construct after 72 hrs by MTS assay; assay type: cell-based
PC-3 [18] = assay: Cytotoxicity against human PC3 cells harboring pGL3-ARR3tk-NLu/human AR V7 truncated mutant after 72 hrs by MTS assay; assay type: cell-based; conditions: pc-3, 72 h

Row | SMILES | IC50 (Androgen receptor [1]) [nM] | IC50 (Androgen receptor [2]) [nM] | IC50 (Androgen receptor [3]) [nM] | growth inhibition (GI) (CWR22R [4]) | growth inhibition (GI) (PC-3 [5]) | Activity [6] | Activity (LNCaP [7]) | Activity [8] | IC50 (Androgen receptor [9]) [nM] | inhibition [10] | inhibition [11] | inhibition [12] | inhibition [13] | IC50 (Tubulin) [nM] | inhibition [14] | growth inhibition (GI) (CWR22R [15]) | growth inhibition (GI) (CWR22R [16]) | Activity (LNCaP [17]) | Activity (PC-3 [18])
1 | O=C1c2ccccc2C(=Cc2cccc(O)c2)c2ccccc21 | 316 | < 10000 | 350 | Active | Toxic | Active | inactive | inactive | 625 to 2500 | Active | inactive | inactive | inactive | 10000 | inactive | – | – | – | –
2 | COc1ccc(C=C2c3cccc(Cl)c3C(=O)c3c(Cl)cccc32)c(OC)c1O | 1140 | 10000 | 170 | – | – | inactive | inactive | – | – | – | – | – | – | – | inactive | Active | – | – | –
3 | COc1ccc(C=C2c3ccccc3C(=O)c3ccccc32)c(O)c1 | 232 | < 10000 | 100 | – | – | Active | inactive | inactive | – | Active | inactive | inactive | inactive | – | inactive | Active | – | – | –
4 | COc1cccc(C=C2c3cccc(Cl)c3C(=O)c3c(Cl)cccc32)c1O | 1480 | 10000 | 730 | – | – | Active | inactive | – | – | – | – | – | – | – | inactive | – | Active | – | –
5 | COc1cc(C=C2c3cccc(Cl)c3C(=O)c3c(Cl)cccc32)cc(OC)c1O | > 10000 | > 10000 | – | – | – | – | – | – | – | – | – | – | – | – | – | – | – | – | –
6 | O=C1c2c(Cl)cccc2C(=Cc2ccccc2O)c2cccc(Cl)c21 | – | – | – | – | – | – | – | – | – | – | – | – | – | – | – | – | – | Toxic | Toxic
7 | COc1ccc(C=C2c3cccc(Cl)c3C(=O)c3c(Cl)cccc32)cc1O | 1890 to 6000 | 10000 | 340 | – | – | inactive | inactive | – | – | – | – | – | – | – | inactive | Active | – | – | –
